Holding throughout (assay type): cell-based
In assay [1] the test system is TEL-VEGFR2-BaF3. Nature of the assay: Cell proliferation (CCK-8, 72 h), TEL-VEGFR2-BaF3. The settings on record: Mus musculus, BaF3 expressing VEGFR2 kinase. The source says:
(§1) In this example, human gastrointestinal stromal tumor cell line GIST-T1 (expressing wild-type C-KIT gene) (purchased from Cosmo Bio Co., Ltd. (Japan)), human gastrointestinal stromal tumor cell line GIST-T1-T670I (expressing C-KIT-T670I mutant gene) (constructed by our laboratory with CRISPR technology), mouse […] BaF3 (purchased from ATCC) were used. In addition, in this Example, mouse Tel-cKit-BaF3 (stably expressing C-KIT wild-type kinase), mouse Tel-cKit/T670I-BaF3 (stably expressing cKIT T670I mutant kinase), mouse Tel-PDGFRα-BaF3 (stably expressing PDGFRα kinase), mouse Tel-PDGFRβ-BaF3 (stably expressing PDGFRβ kinase), mouse Tel-VEGFR2-BaF3 (stably expressing VEGFR2 kinase), mouse Tel-FLT3-BaF3 (stably expressing FLT3 kinase) were also used. The above cell lines were all constructed by our laboratory. The construction method was as follows: the human C-KIT, C-KIT T670I, PDGFRα, PDGFRβ, VEGFR2, FLT3 kinase region sequences were amplified by PCR respectively and inserted into MSCV-Puro vector (purchased from Clontech) with N-terminal TEL fragment and/or NPM fragment and/or TPR fragment respectively, which was stably transferred into mouse BaF3 cells by retroviral method, and IL-3 growth factor was removed, and finally the cell lines in which protein was transferred depending on C-KIT, C-KIT/T670I, PDGFRα, PDGFRβ, VEGFR2, FLT3 were obtained. The GIST-T1-T670I (expressing C-KIT-T670I mutant gene) cell line was constructed by our laboratory. The construction method was as follows: the sgRNA targeting near the T670 site of the KIT gene was designed by the CRISPR design tool of the Zhang Feng Laboratory of the Massachusetts Institute of Technology (URL: crispr.mit.edu) and cloned into pSpCas9(BB)-2A-Puro vector (Addgene, USA); the obtained vector and a single-stranded oligonucleotide with T670I mutation near the T670 site were co-transfected into the cells, and after antibiotic selection, they were diluted and cultured in a single cell in a 96-well plate; the T670 site of the cells was sequenced and verified by the Sanger sequencing method.

For assay [2], the system named is TEL-cKIT-BaF3. Briefly: Cell proliferation (CCK-8, 72 h), TEL-cKIT-BaF3. Particulars: Mus musculus, BaF3 expressing wild-type C-KIT kinase.
Excerpt: as §1

In assay [3] the test system is TEL-PDGFRβ-BaF3. Briefly: Cell proliferation (CCK-8, 72 h), TEL-PDGFRβ-BaF3. Particulars: Mus musculus, BaF3 expressing PDGFRβ kinase.
Excerpt: as §1

Assay [4] deals with TEL-FLT3-BaF3. Briefly: Cell proliferation (CCK-8, 72 h), TEL-FLT3-BaF3. Particulars: Mus musculus, BaF3 expressing FLT3 kinase.
Excerpt: as §1

Assay [5] concerns TEL-cKIT/T670I-BaF3. Nature of the assay: Cell proliferation (CCK-8, 72 h), TEL-cKIT/T670I-BaF3. Particulars: Mus musculus; BaF3 expressing cKIT T670I mutant kinase, 72 h, CCK-8; read-out: GI50 TEL-cKIT/T670I-BaF3.
Excerpt: as §1

The test system of assay [6] is TEL-PDGFRα-BaF3. Nature of the assay: Cell proliferation (CCK-8, 72 h), TEL-PDGFRα-BaF3. Particulars: Mus musculus, BaF3 expressing PDGFRα kinase.
Excerpt: as §1

Assay [7] relates to BaF3. Briefly: Cell proliferation (CCK-8, 72 h), parental BaF3. Particulars: Mus musculus, parental BaF3 cells.
Excerpt: as §1

Regarding `CNC(=O)c1ccccc1Sc1ccc2c(/C=C/c3ccccn3)n[nH]c2c1` [Axitinib, reference compound], the GI50 in assay [1] is < 0.1 nM; in assay [2], 20 nM; in assay [3], 2 nM; in assay [4] it was 300 nM; in assay [5], 48 nM; in assay [6], 1.4 nM. For the same compound, the GI50 in assay [7] came to 430 nM.

For the compound `Cc1nc(NC(=O)c2ccc(CN3CCN(C)CC3)cc2)sc1-c1ccc2c(/C=C/c3ccccn3)n[nH]c2c1` [Compound 1, (E)-N-(4-methyl-5-(3-(2-(pyridin-2-yl)vinyl)-1H-indazol-6-yl)thiazol-2-yl)-4-((4-methylpiperazin-1-yl)methyl)benzamide], the GI50 in assay [1] was 16 nM; in assay [2], 24 nM; in assay [3], 3 nM; in assay [4], < 1 nM; in assay [5] it was 3 nM; in assay [6], 1 nM. The GI50 in assay [7] came to 58 nM.

`COc1ccc(CC(=O)Nc2nc(C)c(-c3ccc4c(/C=C/c5ccccn5)n[nH]c4c3)s2)cc1OC` [Compound 8, (E)-2-(3,4-methoxyphenyl)-N-(4-methyl-5-(3-(2-(pyridin-2-yl)vinyl)-1H-indazol-6-yl)thiazol-2-yl)acetamide]: the GI50 stood at 19 nM in assay [1]; 216 nM in assay [2]; 0.4 nM in assay [4]; 19 nM in assay [5]; 1.2 nM in assay [6]; 4870 nM in assay [7].

Turning to `Cc1nc(NC(=O)Cc2cccc(Cl)c2)sc1-c1ccc2c(/C=C/c3ccccn3)n[nH]c2c1` [Compound 10, (E)-2-(3-chlorophenyl)-N-(4-methyl-5-(3-(2-(pyridin-2-yl)vinyl)-1H-indazol-6-yl)thiazol-2-yl)acetamide], the GI50 is 9.8 nM in assay [1]; 70 nM in assay [2]; 2 nM in assay [4]; 37 nM in assay [5]; 1.3 nM in assay [6]; 4100 nM in assay [7].

Take `CSCCC(N)C(=O)Nc1nc(C)c(-c2ccc3c(/C=C/c4ccccn4)n[nH]c3c2)s1` (stereo not shown) [Compound 15, (E)-2-amino-N-(4-methyl-5-(3-(2-(pyridin-2-yl)vinyl)-1H-indazol-6-yl)thiazol-2-yl)-4-(methylthio)butanamide]: the GI50 in assay [2] came out at 961 nM; in assay [4], 2 nM; in assay [5], 16 nM; in assay [7] it was 594 nM.

Take `Cc1nc(NC(=O)C2CCN(C)CC2)sc1-c1ccc2c(/C=C/c3ccccn3)n[nH]c2c1` [Compound 16, (E)-1-methyl-N-(4-methyl-5-(3-(2-(pyridin-2-yl)vinyl)-1H-indazol-6-yl)thiazol-2-yl)piperidin-4 carboxamide]: the GI50 came out at 1350 nM in assay [2], 2150 nM in assay [4], 323 nM in assay [5] and 1510 nM in assay [7].

Turning to `Cc1nc(NC(=O)C(C)N)sc1-c1ccc2c(/C=C/c3ccccn3)n[nH]c2c1` (stereo not shown) [Compound 17, (E)-2-amino-N-(4-methyl-5-(3-(2-(pyridin-2-yl)vinyl)-1H-indazol-6-yl)thiazol-2-yl)propionamide], the GI50 in assay [2] stood at 460 nM; in assay [4], 4 nM; in assay [5] it was 88 nM; in assay [7] it was 544 nM.

With `Cc1nc(NC(=O)C(N)CC(C)C)sc1-c1ccc2c(/C=C/c3ccccn3)n[nH]c2c1` (stereo not shown) [Compound 18, (E)-2-amino-4-methyl-N-(4-methyl-5-(3-(2-(pyridin-2-yl)vinyl)-1H-indazol-6-yl)thiazol-2-yl)pentanamide], the GI50 in assay [2] was determined as 507 nM; in assay [4] it was 6 nM; in assay [5], 37 nM; in assay [7] it was 706 nM.

Turning to `Cc1nc(NC(=O)C(C)C)sc1-c1ccc2c(/C=C/c3ccccn3)n[nH]c2c1` [Compound 19, (E)-N-(4-methyl-5-(3-(2-(pyridin-2-yl)vinyl)-1H-indazol-6-yl)thiazol-2-yl) isobutanamide], the GI50 in assay [2] turned out to be 519 nM; in assay [4] it was 4 nM; in assay [5], 41 nM; in assay [7] it was 1580 nM.

Turning to `Cc1nc(NC(=O)C(N)Cc2ccccc2)sc1-c1ccc2c(/C=C/c3ccccn3)n[nH]c2c1` (stereo not shown) [Compound 20, (E)-2-amino-N-(4-methyl-5-(3-(2-(pyridin-2-yl)vinyl)-1H-indazol-6-yl)thiazol-2-yl)-3-phenylpropionamide], the GI50 in assay [2] was 361 nM; in assay [4], 3 nM; in assay [5], 37 nM; in assay [7], 708 nM.

For the compound `Cc1nc(NC(=O)CN2CCN(C)CC2)sc1-c1ccc2c(-c3cnn(C)c3)n[nH]c2c1` [Compound 21, N-(4-methyl-5-(3-(1-methyl-1H-pyrazol-4-yl)-1H-indazol-6-yl)thiazol-2-yl)-2-(4-methylpiperazin-1-yl)acetamide], the GI50 in assay [2] is 2740 nM; in assay [4] it was 68 nM; in assay [5], 984 nM; in assay [7], > 10000 nM.

On to `Cc1nc(NC(=O)C(O)CC(C)C)sc1-c1ccc2c(/C=C/c3ccccn3)n[nH]c2c1` (stereo not shown) [Compound 22, (E)-2-hydroxyl-4-methyl-N-(4-methyl-5-(3-(2-(pyridin-2-yl)vinyl)-1H-indazol-6-yl)thiazol-2-yl)pentanamide], for which the GI50 in assay [2] was 1010 nM; in assay [4], 2 nM; in assay [5], 34 nM; in assay [7], 1530 nM.

Turning to `Cc1nc(NC(=O)CN2CCN(C)CC2)sc1-c1ccc2c(-c3cnc(N)nc3)n[nH]c2c1` [Compound 23, N-(5-(3-(2-aminopyrimidin-5-yl)-1H-indazol-6-yl)-4-methylthiazol-2-yl)-2-(4-methylpiperazin-1-yl)acetamide], the GI50 turned out to be 133 nM in assay [2], 0.5 nM in assay [4], 13 nM in assay [5] and 1560 nM in assay [7].

Regarding `Cc1nc(NC(=O)CN2CCN(C)CC2)sc1-c1ccc2c(-c3cccnc3)n[nH]c2c1` [Compound 24, N-(4-methyl-5-(3-(pyridin-3-yl)-1H-indazol-6-yl)thiazol-2-yl)-2-(4-methylpiperazin-1-yl)acetamide], the GI50 was determined as 3210 nM in assay [2], 12 nM in assay [4], 114 nM in assay [5] and 5130 nM in assay [7].

Turning to `Cc1nc(NC(=O)CN2CCN(C)CC2)sc1-c1ccc2c(-c3cncc(F)c3)n[nH]c2c1` [Compound 25, N-(5-(3-(5-fluoropyridin-3-yl)-1H-indazol-6-yl)-4-methylthiazole-2-yl)-2-(4-methylpiperazin-1-yl)acetamide], the GI50 stood at 1460 nM in assay [2], 18 nM in assay [4], 241 nM in assay [5] and 1690 nM in assay [7].

As to `Cc1nc(NC(=O)CN2CCN(C)CC2)sc1-c1ccc2c(-c3cccc(F)c3)n[nH]c2c1` [Compound 26, N-(5-(3-(3-fluorophenyl)-1H-indazol-6-yl)-4-methylthiazol-2-yl)-2-(4-methylpiperazin-1-yl)acetamide], the GI50 was 1020 nM in assay [2], 26 nM in assay [4], 83 nM in assay [5] and 1040 nM in assay [7].

As for `Cc1nc(NC(=O)CC2CCN(C)CC2)sc1-c1ccc2c(/C=C/c3ccccn3)n[nH]c2c1` [Compound 27, (E)-N-(4-methyl-5-(3-(2-(pyridin-2-yl)vinyl)-1H-indazol-6-yl)thiazol-2-yl)-2-(1-methylpiperidin-4-yl)acetamide], the GI50 was 94 nM in assay [2], < 1 nM in assay [4], 1 nM in assay [5] and 605 nM in assay [7].

`Cc1nc(NC(=O)Cc2cccc(C(F)(F)F)c2)sc1-c1ccc2c(-c3cccnc3)n[nH]c2c1` [Compound 28, N-(4-methyl-5-(3-(pyridin-3-yl)-1H-indazol-6-yl)thiazol-2-yl)-2-(3-(trifluoromethyl)phenyl)acetamide]: the GI50 in assay [2] was determined as 48 nM; in assay [4], 0.1 nM; in assay [5] it was 7 nM; in assay [7], 2490 nM.

The record behind these values is patent US12162876B2, “Indazole kinase inhibitor and use thereof” (Tarapeutics Science Inc., priority 2018, dated 2024).
